What was measured:
Experiment in all cases: biochemical
Format in all cases: biochemical
panel of 391 kinases [1] = molecular target: panel of 391 kinases (Homo sapiens, UniProt P07333); conditions: FMS, MK-28 1 µM, ATP 1 µM
panel of 391 kinases [2] = molecular target: panel of 391 kinases (Homo sapiens, UniProt Q99683); conditions: ASK1/MAP3K5, MK-28 1 µM, ATP 1 µM
panel of 391 kinases [3] = molecular target: panel of 391 kinases (Homo sapiens, UniProt Q13237); conditions: PKG2/PRKG2, MK-28 1 µM, ATP 1 µM
panel of 391 kinases [4] = molecular target: panel of 391 kinases (Homo sapiens, UniProt Q6P5Z2); conditions: PKN3/PRK3, MK-28 1 µM, ATP 1 µM
panel of 391 kinases [5] = molecular target: panel of 391 kinases (Homo sapiens, UniProt O00238); conditions: ALK6/BMPR1B, MK-28 1 µM, ATP 1 µM
panel of 391 kinases [6] = molecular target: panel of 391 kinases (Homo sapiens, UniProt O43318); conditions: TAK1, MK-28 1 µM, ATP 1 µM
panel of 391 kinases [7] = molecular target: panel of 391 kinases (Homo sapiens, UniProt Q96PF2); conditions: TSSK2, MK-28 1 µM, ATP 1 µM
panel of 391 kinases [8] = molecular target: panel of 391 kinases (Homo sapiens, UniProt Q6VAB6); conditions: KSR2, MK-28 1 µM, ATP 1 µM
panel of 391 kinases [9] = molecular target: panel of 391 kinases (Homo sapiens, UniProt P16234); conditions: PDGFRa, MK-28 1 µM, ATP 1 µM
panel of 391 kinases [10] = molecular target: panel of 391 kinases (Homo sapiens, UniProt Q96PN8); conditions: TSSK3/STK22C, MK-28 1 µM, ATP 1 µM
panel of 391 kinases [11] = molecular target: panel of 391 kinases (Homo sapiens, UniProt P04049); conditions: RAF1, MK-28 1 µM, ATP 1 µM
panel of 391 kinases [12] = molecular target: panel of 391 kinases (Homo sapiens, UniProt Q16513); conditions: PKN2/PRK2, MK-28 1 µM, ATP 1 µM
panel of 391 kinases [13] = molecular target: panel of 391 kinases (Homo sapiens, UniProt Q96QT4); conditions: kinase TRPM7/CHAK1, compound at 1 µM, single dose in duplicates, 1 µM ATP
panel of 391 kinases [14] = molecular target: panel of 391 kinases (Homo sapiens, UniProt P57059); conditions: SIK1, MK-28 1 µM, ATP 1 µM
panel of 391 kinases [15] = molecular target: panel of 391 kinases (Homo sapiens, UniProt P11362); conditions: FGFR1, MK-28 1 µM, ATP 1 µM
panel of 391 kinases [16] = molecular target: panel of 391 kinases (Homo sapiens, UniProt P17252); conditions: PKCa, MK-28 1 µM, ATP 1 µM
panel of 391 kinases [17] = molecular target: panel of 391 kinases (Homo sapiens, UniProt P23458); conditions: JAK1, MK-28 1 µM, ATP 1 µM
panel of 391 kinases [18] = molecular target: panel of 391 kinases (Homo sapiens, UniProt Q9Y6E0); conditions: MST3/STK24, MK-28 1 µM, ATP 1 µM
panel of 391 kinases [19] = molecular target: panel of 391 kinases (Homo sapiens, UniProt P20794); conditions: MAK, MK-28 1 µM, ATP 1 µM
panel of 391 kinases [20] = molecular target: panel of 391 kinases (Homo sapiens, UniProt P48729); conditions: CK1a1, MK-28 1 µM, ATP 1 µM
panel of 391 kinases [21] = molecular target: panel of 391 kinases (Homo sapiens, UniProt P37173); conditions: TGFBR2, MK-28 1 µM, ATP 1 µM
panel of 391 kinases [22] = molecular target: panel of 391 kinases (Homo sapiens, UniProt Q9H2K8); conditions: TAOK3/JIK, MK-28 1 µM, ATP 1 µM
panel of 391 kinases [23] = molecular target: panel of 391 kinases (Homo sapiens, UniProt P11309); conditions: PIM1, MK-28 1 µM, ATP 1 µM
panel of 391 kinases [24] = molecular target: panel of 391 kinases (Homo sapiens, UniProt P36897); conditions: ALK5/TGFBR1, MK-28 1 µM, ATP 1 µM
panel of 391 kinases [25] = molecular target: panel of 391 kinases (Homo sapiens, UniProt P04629); conditions: TRKA, MK-28 1 µM, ATP 1 µM
panel of 391 kinases [26] = molecular target: panel of 391 kinases (Homo sapiens, UniProt Q96L34); conditions: MARK4, MK-28 1 µM, ATP 1 µM
[27] = read-out: % Enzyme Activity (relative to DMSO controls)

In the case of CN(/N=C\c1ccc(O)c(O)c1)c1nc(-c2ccccc2)cc(-c2ccccc2)n1 [MK-28], the “% Enzyme Activity (relative to DMSO controls)” value (panel of 391 kinases [1]) was 101.26%, the remaining activity at 1 µM (panel of 391 kinases [1]; [27]) was 102% and the “% Enzyme Activity (relative to DMSO controls)” value (panel of 391 kinases [2]) was 97.76%. The remaining activity at 1 µM (panel of 391 kinases [2]; [27]) was 100%, the “% Enzyme Activity (relative to DMSO controls)” value (panel of 391 kinases [3]) was 85.92% and the remaining activity at 1 µM (panel of 391 kinases [3]; [27]) was 86%. For the same compound, the “% Enzyme Activity (relative to DMSO controls)” value (panel of 391 kinases [4]) was 98.68%, the remaining activity at 1 µM (panel of 391 kinases [4]; [27]) was 101% and the “% Enzyme Activity (relative to DMSO controls)” value (panel of 391 kinases [5]) was 100.96%. For the same compound, the remaining activity at 1 µM (panel of 391 kinases [5]; [27]) was 101%, the “% Enzyme Activity (relative to DMSO controls)” value (panel of 391 kinases [6]) was 97.66% and the remaining activity at 1 µM (panel of 391 kinases [6]; [27]) was 97.9%. The “% Enzyme Activity (relative to DMSO controls)” value (panel of 391 kinases [7]) was 76.99%, the remaining activity at 1 µM (panel of 391 kinases [7]; [27]) was 77.3% and the “% Enzyme Activity (relative to DMSO controls)” value (panel of 391 kinases [8]) was 93.44%. The remaining activity at 1 µM (panel of 391 kinases [8]; [27]) was 96%, the “% Enzyme Activity (relative to DMSO controls)” value (panel of 391 kinases [9]) was 97.43% and the remaining activity at 1 µM (panel of 391 kinases [9]; [27]) was 97.7%. The “% Enzyme Activity (relative to DMSO controls)” value (panel of 391 kinases [10]) was 86.26%, the remaining activity at 1 µM (panel of 391 kinases [10]; [27]) was 88% and the “% Enzyme Activity (relative to DMSO controls)” value (panel of 391 kinases [11]) was 93.95%. For the same compound, the remaining activity at 1 µM (panel of 391 kinases [11]; [27]) was 94.3%, the “% Enzyme Activity (relative to DMSO controls)” value (panel of 391 kinases [12]) was 111.91% and the remaining activity at 1 µM (panel of 391 kinases [12]; [27]) was 115%. The “% Enzyme Activity (relative to DMSO controls)” value (panel of 391 kinases [13]) was 102.70%, the remaining activity at 1 µM (panel of 391 kinases [13]; [27]) was 104% and the “% Enzyme Activity (relative to DMSO controls)” value (panel of 391 kinases [14]) was 83.98%. For the same compound, the remaining activity at 1 µM (panel of 391 kinases [14]; [27]) was 85%, the “% Enzyme Activity (relative to DMSO controls)” value (panel of 391 kinases [15]) was 103.69% and the remaining activity at 1 µM (panel of 391 kinases [15]; [27]) was 105%. The “% Enzyme Activity (relative to DMSO controls)” value (panel of 391 kinases [16]) was 89.76%, the remaining activity at 1 µM (panel of 391 kinases [16]; [27]) was 92.7% and the “% Enzyme Activity (relative to DMSO controls)” value (panel of 391 kinases [17]) was 100.53%. The remaining activity at 1 µM (panel of 391 kinases [17]; [27]) was 101%, the “% Enzyme Activity (relative to DMSO controls)” value (panel of 391 kinases [18]) was 121.45% and the remaining activity at 1 µM (panel of 391 kinases [18]; [27]) was 122%. For the same compound, the “% Enzyme Activity (relative to DMSO controls)” value (panel of 391 kinases [19]) was 94.70%, the remaining activity at 1 µM (panel of 391 kinases [19]; [27]) was 97.8% and the “% Enzyme Activity (relative to DMSO controls)” value (panel of 391 kinases [20]) was 98.77%. The remaining activity at 1 µM (panel of 391 kinases [20]; [27]) was 99.5%, the “% Enzyme Activity (relative to DMSO controls)” value (panel of 391 kinases [21]) was 94.50% and the remaining activity at 1 µM (panel of 391 kinases [21]; [27]) was 102%. The “% Enzyme Activity (relative to DMSO controls)” value (panel of 391 kinases [22]) was 100.19%, the remaining activity at 1 µM (panel of 391 kinases [22]; [27]) was 103% and the “% Enzyme Activity (relative to DMSO controls)” value (panel of 391 kinases [23]) was 100.72%. The remaining activity at 1 µM (panel of 391 kinases [23]; [27]) was 101%, the “% Enzyme Activity (relative to DMSO controls)” value (panel of 391 kinases [24]) was 96.61% and the remaining activity at 1 µM (panel of 391 kinases [24]; [27]) was 97.7%. The “% Enzyme Activity (relative to DMSO controls)” value (panel of 391 kinases [25]) was 106.86%, the remaining activity at 1 µM (panel of 391 kinases [25]; [27]) was 108% and the “% Enzyme Activity (relative to DMSO controls)” value (panel of 391 kinases [26]) was 96.24%. It also gave a remaining activity at 1 µM (panel of 391 kinases [26]; [27]) of 99.8%.

— PMC7181660, “A novel specific PERK activator reduces toxicity and extends survival in Huntington's disease models” (Scientific Reports, 2020)
